The first data set concerns the target T1, NUAK1 (Homo sapiens, UniProt O60285).
T1 sequence (O60285 1-661): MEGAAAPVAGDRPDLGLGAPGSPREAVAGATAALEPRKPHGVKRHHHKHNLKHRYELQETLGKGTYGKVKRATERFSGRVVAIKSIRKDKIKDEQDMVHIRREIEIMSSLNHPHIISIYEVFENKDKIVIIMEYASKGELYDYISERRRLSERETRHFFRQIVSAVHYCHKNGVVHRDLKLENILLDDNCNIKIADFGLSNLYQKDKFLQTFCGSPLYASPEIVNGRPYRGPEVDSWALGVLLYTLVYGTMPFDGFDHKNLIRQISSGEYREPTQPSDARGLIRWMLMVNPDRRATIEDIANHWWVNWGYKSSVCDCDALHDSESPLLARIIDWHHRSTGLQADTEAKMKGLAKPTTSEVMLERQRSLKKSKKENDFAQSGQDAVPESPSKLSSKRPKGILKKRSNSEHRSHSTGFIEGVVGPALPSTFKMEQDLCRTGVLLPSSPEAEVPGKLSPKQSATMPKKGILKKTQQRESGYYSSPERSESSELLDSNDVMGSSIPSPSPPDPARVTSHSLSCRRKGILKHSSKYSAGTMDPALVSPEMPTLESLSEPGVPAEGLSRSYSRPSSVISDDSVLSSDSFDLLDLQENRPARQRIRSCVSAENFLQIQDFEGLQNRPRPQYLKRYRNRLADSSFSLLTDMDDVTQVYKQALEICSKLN
Description: NanoBRET target engagement assay, HEK293 cells. To be noted: cell-based NanoBRET target engagement assay. On the procedure: NanoBRET® target engagement assay
The binding of compounds to NUAK1 in intact cells was assessed using an NanoBRET® TE Intracellular Kinase Assay (Promega N2501). HEK293 cells transiently transfected with NanoLuc®- NUAK1 Fusion Vector (Promega NV1831) were incubated with 10 nL K5 tracer (provided in the kit, Promega N2501) and 40 nL of the test compounds in 100% DMSO in a white low volume non-binding 384 assay plate (Grenier Bio One 784904) for 90 min at 37 °C. After incubation, followed by cooling for 15 min at room temperature, 4 µL of the Intracellular TE Nano-Glo ® Substrate/Inhibitor (Promega N2160) was added to each well. The plate was read using a Pherastar FSX plate reader (BMG Labtech).
Minimum number of 2 technical replicates per compound.
(§1) Activity pIC50 values and standard error of the mean (SEM) were estimated using a 4-parameter fit (Dotmatics). The SEM for all reported data was 0.2 or lower. See Experimental Procedures for minimum number of replicates per compound. Each experiment included a Standard compound whose pIC50 value was compared to a quality control chart. If the Standard pIC50 value fell outside the range of pIC50 +/-3 standard deviation, then the experiment was invalidated. […]
In general terms: BRET reads energy transfer from a luciferase to a nearby fluorophore.
For the compound `Cc1cc(=O)n(C2CCCC2)c2nc(Nc3ccc(N4CCN(C)CC4)cc3)ncc12` [Compound 4], the “NUAK1 cell TE pIC50” value came to 6.9.

For the compound `CC(C)N1CCN(c2ccc(Nc3ncc4c(n3)N(C3CCCC3)C(=O)C4)cc2)CC1` [Compound 7], the “NUAK1 cell TE pIC50” value turned out to be 6.6.

For the compound `CC(C)N1CCN(c2ccc(Nc3ncc4ccn(C5CCCC5)c4n3)cc2)CC1` [Compound 8], the “NUAK1 cell TE pIC50” value stood at 6.8.

For the compound `Cc1cc(=O)n(C2CCCC2)c2nc(Nc3ccc(N4CC5CC(C4)N5C)cc3)ncc12` [Compound 9], the “NUAK1 cell TE pIC50” value is on record as 6.5.

Take `CN1C2CC1CN(c1ccc(Nc3ncc4cc(C#N)c(=O)n(C5CCCC5)c4n3)cc1)C2` [Compound 10]: the “NUAK1 cell TE pIC50” value was determined as 6.2.

Another data set deals with T2, MARK1 (Homo sapiens, UniProt Q9P0L2).
T2 construct: purchased MRC PPU
T2 sequence (Q9P0L2 whole entry): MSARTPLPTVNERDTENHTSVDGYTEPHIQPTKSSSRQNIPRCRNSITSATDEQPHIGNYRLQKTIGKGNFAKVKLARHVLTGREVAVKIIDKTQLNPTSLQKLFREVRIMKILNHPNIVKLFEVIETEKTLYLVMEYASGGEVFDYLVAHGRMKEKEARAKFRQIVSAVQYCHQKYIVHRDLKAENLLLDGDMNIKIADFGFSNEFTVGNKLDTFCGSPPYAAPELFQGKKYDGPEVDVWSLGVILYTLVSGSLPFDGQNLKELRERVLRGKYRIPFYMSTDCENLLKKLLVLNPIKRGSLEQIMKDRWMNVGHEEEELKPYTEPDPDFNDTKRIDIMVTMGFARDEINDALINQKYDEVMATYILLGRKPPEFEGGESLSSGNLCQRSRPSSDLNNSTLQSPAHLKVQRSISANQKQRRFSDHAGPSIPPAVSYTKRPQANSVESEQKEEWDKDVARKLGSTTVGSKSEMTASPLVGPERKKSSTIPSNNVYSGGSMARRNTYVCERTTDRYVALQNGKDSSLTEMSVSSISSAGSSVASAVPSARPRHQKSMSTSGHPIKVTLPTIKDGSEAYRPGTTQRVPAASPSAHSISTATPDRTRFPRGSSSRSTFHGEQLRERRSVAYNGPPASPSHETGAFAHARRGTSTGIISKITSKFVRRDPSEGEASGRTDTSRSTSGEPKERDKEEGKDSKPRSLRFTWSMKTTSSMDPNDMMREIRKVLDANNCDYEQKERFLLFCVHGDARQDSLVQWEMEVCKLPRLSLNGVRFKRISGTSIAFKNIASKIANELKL
Description: ADP-Glo biochemical assay MARK1. The settings on record: ADP-Glo assay. On the procedure: Biological experimental procedures
ADP-Glo biochemical assays
Protein kinase activity in the presence of inhibitor compounds was determined by ADP-Glo assay (Promega), as previously described.1,2 Compounds were serialised using a Labcyte Echo 520 and transferred to 384 well plates (Greiner 784201) followed by the addition 5 µL of substrate containing peptide and ATP at Km in buffer (see Table S6). 5 µL of purified protein was added and the plate was incubated for 60 minutes at room temperature (ng/well; see Table S6). 3 µL of assay mixture was transferred using an Integra Viaflo384 into a white low volume plate (Greiner 781904) prior to the addition of 3 µL of ADP-Glo Reagent™ for a further 40 minute incubation. After incubation with 6 µL of Kinase Detection Reagent for 30 minutes, plate luminescence was read (Pherastar FSX, BMG […]
30 mM HEPES pH7.4, 3 mM MgCl2, 3 mM MnCl2, 1.2 mM DTT, 0.01% CHAPS
Table S6: Conditions for protein kinase ADP-Glo assays
ATP AT Peptide Peptide Enzyme Enzyme Assay Buffe Min.
Protein conc. P Peptide name conc. supplier amount supplier vol. r na […]
NUAK1 µM µM Sakamototide 50 µM Merck 6.7 ng PPU 10 µl A 6
A µM µM Sakamototide 100 µM Merck 1 ng PPU 10 µl B 2 […]
aMin. n: Minimum number of technical replicates per compound
For orientation: ADP-Glo first removes unused ATP, then detects ADP through luciferase.
As to `Cc1cc(=O)n(C2CCCC2)c2nc(Nc3ccc(N4CCN(C)CC4)cc3)ncc12` [Compound 4], the “MARK1 pIC50” value is given as 5.5.

Turning to `CC(C)N1CCN(c2ccc(Nc3ncc4c(n3)N(C3CCCC3)C(=O)C4)cc2)CC1` [Compound 7], the “MARK1 pIC50” value was 5.5.

On to `CC(C)N1CCN(c2ccc(Nc3ncc4ccn(C5CCCC5)c4n3)cc2)CC1` [Compound 8], for which the “MARK1 pIC50” value worked out at 5.8.

Staying with this data set, now noted: ADP-Glo assay; read-out: MARK1 pIC50 (converted).
For `Cc1cc(=O)n(C2CCCC2)c2nc(Nc3ccc(N4CCN(C)CC4)cc3)ncc12` [Compound 4], the IC50 is 2950 nM.

For `CC(C)N1CCN(c2ccc(Nc3ncc4c(n3)N(C3CCCC3)C(=O)C4)cc2)CC1` [Compound 7], the IC50 was 2950 nM.

As for `CC(C)N1CCN(c2ccc(Nc3ncc4ccn(C5CCCC5)c4n3)cc2)CC1` [Compound 8], the IC50 was 1450 nM.

Staying with this data set, now noted: MARK1 IC50/NUAK1 IC50.
As to `Cc1cc(=O)n(C2CCCC2)c2nc(Nc3ccc(N4CCN(C)CC4)cc3)ncc12` [Compound 4], the “MARK1 Fold selectivity IC50/NUAK1 IC50” value came out at 646 fold.

In the case of `CC(C)N1CCN(c2ccc(Nc3ncc4c(n3)N(C3CCCC3)C(=O)C4)cc2)CC1` [Compound 7], the “MARK1 Fold selectivity IC50/NUAK1 IC50” value is recorded as 708 fold.

As for `CC(C)N1CCN(c2ccc(Nc3ncc4ccn(C5CCCC5)c4n3)cc2)CC1` [Compound 8], the “MARK1 Fold selectivity IC50/NUAK1 IC50” value came to 316 fold.

The target of a further data set is T3, CDK6/Cyclin D1 (Homo sapiens, UniProt Q00534).
T3 construct: purchased Thermo Fisher Scientific
T3 sequence (Q00534 whole entry): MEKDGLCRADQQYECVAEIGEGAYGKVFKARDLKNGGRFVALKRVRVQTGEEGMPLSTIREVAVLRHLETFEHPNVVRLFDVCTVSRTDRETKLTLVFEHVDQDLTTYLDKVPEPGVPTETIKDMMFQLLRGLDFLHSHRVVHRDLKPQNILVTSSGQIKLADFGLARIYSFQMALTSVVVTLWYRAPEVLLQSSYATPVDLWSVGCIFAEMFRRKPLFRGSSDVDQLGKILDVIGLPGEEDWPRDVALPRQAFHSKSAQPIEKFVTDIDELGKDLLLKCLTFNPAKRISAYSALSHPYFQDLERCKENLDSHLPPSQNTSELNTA
T3 sequence (P24385 whole entry partner): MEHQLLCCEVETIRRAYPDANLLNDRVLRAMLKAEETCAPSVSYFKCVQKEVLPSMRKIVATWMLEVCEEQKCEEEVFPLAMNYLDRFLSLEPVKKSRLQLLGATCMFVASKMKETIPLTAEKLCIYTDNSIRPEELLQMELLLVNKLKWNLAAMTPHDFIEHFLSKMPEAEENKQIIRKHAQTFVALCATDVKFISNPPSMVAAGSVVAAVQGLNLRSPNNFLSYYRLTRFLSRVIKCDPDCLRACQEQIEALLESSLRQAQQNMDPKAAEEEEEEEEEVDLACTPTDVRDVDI
Description: Adapta screening assay (Thermo Fisher). The format is biochemical. The settings on record: single point at 1 μM; read-out: CDK6 % Inh.
From the text: as §1
CDK6/cyclin D1: Adapta™ screening assay was performed by Thermo Fisher Scientific. The 2X CDK6/cyclin D1 / Rb Substrate mixture is prepared in 50 mM HEPES pH 7.5, 0.01% BRIJ-35, 10 mM MnCl2, 1 mM EGTA, 2 mM DTT, 0.02% NaN3. The final 10 µL Kinase Reaction consists of 1.75 - 7 ng CDK6/cyclin D1 and 1 µM Rb Substrate in 32.5 mM HEPES pH 7.5, 0.005% BRIJ-35, 5 mM MnCl2, […]
All single point assay determinations carried out in duplicate. […]
For `Cc1cc(=O)n(C2CCCC2)c2nc(Nc3ccc(N4CCN(C)CC4)cc3)ncc12` [Compound 4], the inhibition at 1 µM was found to be 87%.

For the compound `CC(C)N1CCN(c2ccc(Nc3ncc4c(n3)N(C3CCCC3)C(=O)C4)cc2)CC1` [Compound 7], the inhibition at 1 µM worked out at 59%.

For `CC(C)N1CCN(c2ccc(Nc3ncc4ccn(C5CCCC5)c4n3)cc2)CC1` [Compound 8], the inhibition at 1 µM is 79%.

`Cc1cc(=O)n(C2CCCC2)c2nc(Nc3ccc(N4CC5CC(C4)N5C)cc3)ncc12` [Compound 9]: the inhibition at 1 µM was found to be 67%.

As to `CN1C2CC1CN(c1ccc(Nc3ncc4cc(C#N)c(=O)n(C5CCCC5)c4n3)cc1)C2` [Compound 10], the inhibition at 1 µM came to 96%.

Test system in another data set: not listed separately
Kind of data set: Microsomal stability, mouse. Type of data set: in vitro ADME. To be noted: mouse liver microsomes; read-out: MLM t1/2. On the procedure: All single point assay determinations carried out in duplicate.
ADMET and PK experimental methods
Microsomal stability: analysis was performed by Cyprotex Discovery. […]
For orientation: Liver microsomes are a subcellular fraction often used to study metabolism.
As to `Cc1cc(=O)n(C2CCCC2)c2nc(Nc3ccc(N4CCN(C)CC4)cc3)ncc12` [Compound 4], the half-life at 0.75 h, 1 µM turned out to be 6.2 min.

On to `CC(C)N1CCN(c2ccc(Nc3ncc4c(n3)N(C3CCCC3)C(=O)C4)cc2)CC1` [Compound 7], for which the half-life at 0.75 h, 1 µM amounted to 9.5 min.

Turning to `CC(C)N1CCN(c2ccc(Nc3ncc4ccn(C5CCCC5)c4n3)cc2)CC1` [Compound 8], the half-life at 0.75 h, 1 µM came out at 15.1 min.

With `Cc1cc(=O)n(C2CCCC2)c2nc(Nc3ccc(N4CC5CC(C4)N5C)cc3)ncc12` [Compound 9], the half-life at 0.75 h, 1 µM is 20.9 min.

Consider `CN1C2CC1CN(c1ccc(Nc3ncc4cc(C#N)c(=O)n(C5CCCC5)c4n3)cc1)C2` [Compound 10], for which the half-life at 0.75 h, 1 µM worked out at 33.1 min.

The target of another data set is CDK2-Cyclin A (Homo sapiens, UniProt P24941). Description: Z′-LYTE screening assay (Thermo Fisher). Also noted: purchased Thermo Fisher Scientific. To be noted: single point at 1 μM; read-out: CDK2 % Inh. Type of data set: biochemical. An excerpt:
Activity pIC50 values and standard error of the mean (SEM) were estimated using a 4-parameter fit (Dotmatics). The SEM for all reported data was 0.2 or lower. See Experimental Procedures for minimum number of replicates per compound. Each experiment included a Standard compound whose pIC50 value was compared to a quality control chart. If the Standard pIC50 value fell outside the range of pIC50 +/-3 standard deviation, then the experiment was invalidated.
CDK2/cyclin A: Z′-LYTE™ screening assay performed by Thermo Fisher Scientific: The 2X CDK2/cyclin A / Ser/Thr 12 mixture is prepared in 50 mM HEPES pH 7.5, 0.01% BRIJ-35, 10 mM MgCl2, 1 mM EGTA. The final 10 µL Kinase Reaction consists of 1.22 - 10.3 ng CDK2/cyclin A and 2 µM Ser/Thr 12 in 50 mM HEPES pH 7.5, 0.01% BRIJ-35, 10 mM MgCl2, 1 mM EGTA. After the 1 hour Kinase Reaction incubation, 5 µL of a 1:4096 dilution of Development Reagent A is added. […]
`Cc1cc(=O)n(C2CCCC2)c2nc(Nc3ccc(N4CCN(C)CC4)cc3)ncc12` [Compound 4]: the inhibition at 1 µM is 57%.

`CC(C)N1CCN(c2ccc(Nc3ncc4c(n3)N(C3CCCC3)C(=O)C4)cc2)CC1` [Compound 7]: the inhibition at 1 µM turned out to be 32%.

`CC(C)N1CCN(c2ccc(Nc3ncc4ccn(C5CCCC5)c4n3)cc2)CC1` [Compound 8]: the inhibition at 1 µM is 84%.

In the case of `Cc1cc(=O)n(C2CCCC2)c2nc(Nc3ccc(N4CC5CC(C4)N5C)cc3)ncc12` [Compound 9], the inhibition at 1 µM was determined as 38%.

On to `CN1C2CC1CN(c1ccc(Nc3ncc4cc(C#N)c(=O)n(C5CCCC5)c4n3)cc1)C2` [Compound 10], for which the inhibition at 1 µM was 94%.

Source of the values: paper PMC11831560, “Development of the Pyrido[2,3-d]pyrimidin-7(8H)-one Scaffold toward Potent and Selective NUAK1 Inhibitors” (ACS Medicinal Chemistry Letters, 2025).
